Patent US6806230B1, “Pyrimidine derivatives and herbicides containing them” (Kumiai Chemical Industry Co., Ltd., priority 1999, dated 2004)

Legend:
Format in all cases: in vivo
barnyard grass (Eo) = experiment: Test Example 1: herbicidal effects by flooded paddy field treatment; set-up: herbicidal effects, Eo (barnyard grass):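 0-5 growth inhibition grade; 5 = over 90%; 4 = 70-90%; 3 = 50-70%; 2 = 30-50%; 1 = 10-30%; 0 = under 10%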; settings: dose 100 g active ingredient per 10 ares, examined on the 21st day after treatment, standards of Table 44
Summary of the method: (§1)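 Pots hold puddled paddy soil; seeds are sown and the pots flooded 3 cm deep. Next day, diluted wettable powder goes dropwise onto the water at a dose of 100 g active ingredient per 10 ares, and herbicidal effects are rated after 21 days in a greenhouse.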

monochoria (Mo) = experiment: as above; set-up: herbicidal effects, Mo (monochoria):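 0-5 growth inhibition grade; 5 = over 90%; 4 = 70-90%; 3 = 50-70%; 2 = 30-50%; 1 = 10-30%; 0 = under 10%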; settings: dose 100 g active ingredient per 10 ares, examined on the 21st day after treatment, standards of Table 44
Summary of the method: as §1

barnyard grass (Ec) [1] = experiment: Test Example 2: herbicidal effects by upland soil treatment; set-up: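 0-5 growth inhibition grade; 5 = over 90%; 4 = 70-90%; 3 = 50-70%; 2 = 30-50%; 1 = 10-30%; 0 = under 10%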; settings: dose 100 g active ingredient per 10 ares, examined on the 21st day after treatment
Summary of the method: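 Pre-emergence test: barnyard grass and green foxtail sown in upland soil, then soil surface sprayed with wettable-powder formulation at 100 g active ingredient per 10 ares (100 l per 10 ares). Grown in greenhouse; herbicidal effect scored on a rating scale 21 days after treatment.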

barnyard grass (Ec) [2] = experiment: Test Example 3: herbicidal effects by foliage treatment in upland field; set-up: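 0-5 growth inhibition grade; 5 = over 90%; 4 = 70-90%; 3 = 50-70%; 2 = 30-50%; 1 = 10-30%; 0 = under 10%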; settings: dose 100 g active ingredient per 10 ares, examined on the 14th day after treatment
Procedure: In a 80 cm^2 plastic pot, upland soil was filled, and seeds of barnyard grass (Ec) and green foxtail (Se) were sown and cultured in a green house for 2 weeks. Then, a wettable powder prepared in accordance with Formulation Example 1 was diluted with water and applied to the entire foliage from above the plants by means of a small size spray at a rate of 100 l per 10 ares so that the dose of the active ingredient would be 100 g per 10 ares. Thereafter, cultivation was carried out in a green house, and on the 14th day after the treatment, the herbicidal effects were examined in accordance with the standards of Table 44.

| SMILES | herbicidal effects, Eo (barnyard grass) (barnyard grass (Eo)) | herbicidal effects, Mo (monochoria) (monochoria (Mo)) | Ec (herbicidal effects, index) (barnyard grass (Ec) [1]) | Ec (herbicidal effects, index) (barnyard grass (Ec) [2]) |
| --- | --- | --- | --- | --- |
| CC(C)C(c1cncnc1C(F)(F)F)N(CC#N)C(=O)Cc1ccc(Cl)cc1 (racemic) [1-482] | 5 | 5 | 5 | 5 |
| CCC(c1cncnc1C(C)C)N(C)C(=O)Cc1ccc(F)cc1 (racemic) [1-437] | 5 | 5 | 5 | 4 |
| C#CCN(C(=O)Cc1ccc(F)cc1)C(c1cncnc1C(C)C)C(C)C (racemic) [1-622] |  |  | 4 | 4 |
| CCc1ncncc1C(C(C)C)N(C)C(=O)N(C)c1ccccc1 (racemic) [1-538] | 5 | 5 | 5 | 4 |
| CC(C(=O)N(C)C(c1cncnc1C(F)(F)F)C(C)C)c1ccc(Br)s1 (mixture of isomers) [2-61] | 5 | 5 | 5 | 4 |
| Cc1ccc(N(C)C(=O)N(C)C(c2cncnc2C(F)(F)F)C(C)C)cc1 (racemic) [1-428] | 5 | 5 | 5 | 4 |
| CC(C)c1ncncc1C(C(C)C)N(C)C(=O)N(C)c1ccc(Cl)cc1 (racemic) [1-430] | 5 | 5 | 5 | 4 |
| CCCc1ncncc1C(C(C)C)N(C)C(=O)Cc1ccccc1 (racemic) [1-445] | 5 | 5 | 5 | 5 |
| CC(C)CC(c1cncnc1C(F)(F)F)N(C)C(=O)Cc1ccc(F)cc1 (racemic) [1-331] | 5 | 5 | 5 | 4 |
| CC(C)C(c1cncnc1C(F)(F)F)N(C)C(=O)N(C)c1ccc(F)cc1F (racemic) [1-537] | 5 | 5 | 5 | 4 |
| CON(C(=O)Cc1ccc(Cl)cc1)C(c1cncnc1C(F)(F)F)C(C)C (racemic) [1-407] | 5 | 5 | 5 | 4 |
| CON=CC(c1cncnc1C(C)C)N(C)C(=O)Cc1ccc(F)cc1 (racemic) [1-463] | 5 | 5 | 4 | 4 |
| CCc1ncncc1C(C(C)C)N(C)C(=O)Cc1ccc(C)cc1 (racemic) [1-435] | 5 | 5 | 5 | 4 |
| C#CCN(C(=O)Cc1ccc(F)cc1)C(c1cncnc1CCC)C(C)C (racemic) [1-617] |  |  | 5 | 4 |
| CCC(C)C(c1cncnc1C(F)(F)F)N(C)C(=O)Cc1cccc(F)c1 (mixture of isomers) [Compound 1-267] | 5 | 5 | 5 | 4 |
| CCc1ncncc1C(C(C)C)N(C)C(=O)Oc1ccc(Cl)cc1 (racemic) [1-642] |  |  | 4 | 4 |
| CCc1ncncc1C(C(C)C)N(C)C(=O)N(C)c1ccc(F)cc1 (racemic) [1-539] | 5 | 5 | 5 | 4 |
| CON=Cc1ncncc1C(C(C)C)N(C)C(=O)Cc1ccc(F)cc1 (racemic) [1-497] | 5 | 5 | 5 | 4 |
| CCc1ncncc1C(C(C)C)N(C)C(=O)Cc1ccc(Cl)cc1 (racemic) [1-434] | 5 | 5 | 5 | 4 |

| SMILES | herbicidal effects, Eo (barnyard grass) (barnyard grass (Eo)) | herbicidal effects, Mo (monochoria) (monochoria (Mo)) | Ec (herbicidal effects, index) (barnyard grass (Ec) [1]) | Ec (herbicidal effects, index) (barnyard grass (Ec) [2]) |
| --- | --- | --- | --- | --- |
| CC(C)c1ncncc1C(C(C)C)N(C)C(=O)Cc1cccs1 (racemic) [2-23] | 5 | 5 | 5 | 4 |
| CC(C)C(c1cncnc1C(F)(F)F)N(C)C(=O)COc1cc(C(F)(F)F)nn1C (racemic) [2-46] | 5 | 5 | 5 | 4 |
| CN(C(=O)Cc1ccc(F)cc1)C(c1cncnc1C(F)(F)F)C1(C)CC1 (racemic) [1-410] | 5 | 5 | 5 | 4 |
| CN(C(=O)Cc1ccccc1)C(c1ccccc1F)c1cncnc1C(F)(F)F (racemic) [1-546] | 5 | 5 | 5 | 4 |
| CCc1ncncc1C(C(C)C)N(C)C(=O)N(C)c1ccc(Cl)cc1 (racemic) [1-540] | 5 | 5 | 5 | 4 |
| CC(C)CC(c1cncnc1C(F)(F)F)N(C)C(=O)Cc1cccs1 (racemic) [2-51] | 5 | 5 | 5 | 4 |
| CON=C(C)C(c1cncnc1C(C)C)N(C)C(=O)Cc1ccc(F)cc1 (racemic) [1-563] | 5 | 5 | 5 | 5 |
| CCCc1ncncc1C(C(C)C)N(C)C(=O)Cc1ccc(Cl)cc1 (racemic) [1-447] | 5 | 5 | 5 | 5 |
| CCC(C)C(c1cncnc1C(F)(F)F)N(C)C(=O)Cc1cccs1 (mixture of isomers) [2-11] | 5 | 5 | 5 | 5 |
| CCCc1ncncc1C(C(C)C)N(C)C(=O)Cc1ccc(F)cc1 (racemic) [1-446] | 5 | 5 | 5 | 5 |
| CCC(C)C(c1cncnc1C(F)(F)F)N(C)C(=O)Cc1ccsc1 (mixture of isomers) [2-12] | 5 | 5 | 5 | 5 |
| CCc1ncncc1C(N(C)C(=O)Cc1ccc(F)cc1)C(C)(C)C (racemic) [1-565] | 5 | 5 | 5 | 5 |
| COC(=O)c1ncncc1C(C(C)C)N(C)C(=O)C(C)c1ccc(Cl)cc1 (single isomer, unassigned) [Compound 1-592, 5-(1-{[2-(4-chlorophenyl)-propionyl]methylamino}-2-methylpropyl)-pyrimidine-4-carboxylic acid methyl ester] | 5 | 5 | 5 | 5 |
| CON=CC(c1cncnc1C(C)C)N(C)C(=O)Cc1ccc(Cl)cc1 (racemic) [1-464] | 5 | 5 | 5 | 4 |
| C#CCN(C(=O)Cc1ccc(Cl)cc1)C(c1cncnc1CC)C(C)C (racemic) [1-560] | 5 | 5 | 5 | 4 |
| CC(C(=O)N(C)C(c1cncnc1C#N)C(C)C)c1ccc(Cl)cc1 (mixture of isomers) [1-508] |  |  | 5 | 4 |
| C#CCN(C(=O)Cc1ccsc1)C(c1cncnc1C(C)C)C(C)C (racemic) [2-79] |  |  | 5 | 4 |
| CC(C)c1ncncc1C(C(C)C)N(C)C(=O)Cc1ccc(F)cc1 (racemic) [Compound 1-129] | 5 | 5 |  | 5 |
| C#CCN(C(=O)Cc1ccc(C)cc1)C(c1cncnc1CCC)C(C)C (racemic) [1-619] |  |  | 5 | 4 |
